Data taken from patent US9585823B2, “Personal care compositions comprising a multi-active system for down regulating cytokines irritation” (The Gillette Company, priority 2010, dated 2017).

Tested on: hTERT keratinocytes
Assay type: cell-based
Procedure: To ensure proper levels of the biological active molecules for the in vitro study, dilution studies were conducted and ATP was analyzed for the highest non-cytotoxic concentration. Olivem 460 (lot LG0833 from B&T, Milan Italy) at a level of 0.000156% and SymRelief (from Symrise) at a level of 0.0625% were determined to be appropriate respective concentrations for this study. ATP analysis is described below.
ATP analysis was conducted using Cell Titer-Glo. The CellTiter-Glo Luminescent Cell Viability Assay was obtained from Promega Corporation (Madison, Wis.). This assay is a homogeneous method for determining the number of viable cells in culture based on quantitation of ATP present, signaling the presence of metabolically active cells. After the final treatment and supernatants collected, the CellTiter-Glo reagent was added. The reagent was then transferred to a BD Falcon (Franklin Lakes, N.J.) Microtest 96-well Assay Plate (black, flat bottom, reference 353945, lot 041151). Luminescence was read on a Perkin Elmer Fluorimeter (Wallac Envision 2101 Multilabel Reader). Relative luminescence units were plotted in percent control versus treatment concentration.

Substance | highest non-cytotoxic concentration (level determined appropriate for the study)
Bisabolol (and) Zingiber Officinale Root Extract [SymRelief] | 0.0625%
Sodium PEG-7 Olive Oil Carboxylate [Olivem 460] | 0.000156%
